The test system of one data set is 9L^HSV1-tk cells. Put plainly: In vitro detection of accumulation with MR spectroscopy. The format is cell-based, rat. The following applies: 9L^HSV1-tk cells incubated 3.5 h. On the procedure: At least two distinctive peaks, typical to 2, appear in the spectra of the pure compound (black), a singlet at 1.22 ppm (6H of the 2 Methyls) and a triplet at 6.29 ppm (1H, the proton on 1′ carbon of the sugar). Both peaks appear in the lysate of cells incubated with the compound (red spectra) but not in the control (blue spectra). The samples were prepared using dual-phase extraction for simultaneous extraction of cellular lipids and water-soluble metabolite. Twenty five million cells (9L^HSV1-tk) were incubated with or without 2 for 3.5 h. After dual-phase extraction and lyophilizing of the water from the water-soluble fraction, the soluble intracellular contents were dissolved in D2O for the ^1H-NMR experiments. Fully relaxed ^1H-NMR spectra of the extracts were acquired on a Bruker 500 MHz scanner. The signal integrals of the typical functional groups of 2 (methyl groups —(CH3)2 at 1.22 ppm and of the CH on the C-1′ position of the sugar moiety at 6.29 ppm) and of the standard TSP (0 ppm) were determined. Then, the mM intracellular concentration of 2 was calculated as shown previously (Glunde, K. et al., Cancer Res 2005, 65, 11034) and found to be 0.37 mM.

Another data set relates to 293^HSV1-tk cells. Put plainly: Cell viability assay (CellTiter-Blue). It counts as cell-based, human. The following applies: 0.5 mg/ml, 4 and 24 hours. On the procedure: Cell viability assay was performed using CellTiter-Blue® Cell Viability Assay (Promega), which provides a fluorometric method for estimating the number of viable cells present in 96 well plate. HEK293FT cells transduced with the HSV1-tk (293^HSV1-tk) were plated in 96 well-plate (10,000 cells/well). Cells were incubated for a periods of 4 hours and 24 hours in the presence of ganciclovir (GCV, 0.5 mg/ml in cell medium), compound 2 (0.5 mg/ml in cell medium) and medium (as control). CellTiter-Blue® Reagent was added (20 μl/well) and plate was incubated for 3 hours at 37° C. Finally, fluorescence 560/590 nm was recorded and values obtained from probe containing wells (GCV or 2, N=4) were normalized to values of non-treated cells (control wells) to determine the % of viable cells after the incubation period.
Background: Alamar Blue is a resazurin reagent that responds to reducing activity.

The nature of data set [1]: In vitro CEST-MRI of thymidine analogues at 11.7 T. The format is physicochemical. The following applies: pH 7.4, 37° C. On the procedure:
All compounds were dissolved at a concentration of 20 mM in phosphate-buffered saline (PBS) (pH=7.4) and placed in microcapillaries, as described previously.^17 CESTMRI experiments were performed on a vertical 11.7 T scanner (Bruker Avance system) at 37° C. A modified RARE sequence (TR/TE=10 000/9.4 ms; RARE factor=16; 1 mm slice thickness; FOV=11×11 mm^2; matrix size=64×32; resolution=0.17×0.34 mm^2; and NA=2) including a magnetization transfer (MT) module ([…]) was used to acquire CEST-weighted images from −8 to +8 ppm with increments of 0.2 ppm around the water resonance, which was assigned to be at 0 ppm. Pixel-based B0 correction was used as described before using the same parameters as above except for TR=1500 ms and B1/tsat=21 Hz/500 ms, with a sweep range from −2 to +2 ppm (0.1 ppm steps). Data processing was performed using custom-written scripts in MATLAB (Mathworks). Mean CEST spectra were plotted from an ROI for each sample, after B0 correction. MTRasym=100×(S^−Aω−S^AωA/^‘−’0)/3 was computed at different offsets Aω.

Data set [2] in a line: Quantification of exchange rates (QUESP, Bloch equation fitting). The format is physicochemical. The following applies: 11.7 T, pH 7.4, 37° C. How it is done: Exchange rates were quantified with the saturation power dependent CEST approach (QUESP) and Bloch equation fitting (McMahon et al., Magn. Res. Med. 2006, 55, 836). For each sample, the MTRasym was measured at the imino resonance frequency for CEST saturation fields of 43, 85, 128, 170, 213, 255, 340, and 426 Hz while the saturation pulse duration was kept constant at 4000 ms. The Bloch equations were then fit numerically to these MTRasym values using MATLAB (Mathworks), and the exchange rates (kex, s^−1) were determined from the fits. Errors (95% confidence limits) were estimated using the F statistic.

Data set [3] has as its system 9L^wt and 9L^HSV1-tk tumors. In words: Terminal transferase nick-end-labeling (TUNEL) of brain tumors. It counts as in vivo, mice. The following applies: 150 mg/kg, 6 hours post i.v. injection. On the procedure: ApopTag® Plus In Situ Apoptosis Fluorescein Detection Kit (Millipore) was used for detecting degraded DNA fragments to evaluate apoptosis after the administration of compound 2. Six hours after i.v. administration of 2 (150 mg/kg body weight) mice were transcardially perfused with 10 mM PBS and 4% PFA for tissue fixation. Brains were fixed in 4% PFA overnight, cryopreserved in 30% sucrose, and followed by cryo-sectioning at 30 μm slices. Slices were post-fixed in ethanol: acetic acid (2:1) solution followed by the manufacture procedure for using the ApopTag® Plus In Situ Apoptosis Fluorescein Detection Kit (Millipore, […]).

The subject of the next data set is HSV1-TK over m-TK. In words: Kinase assay with HEK-293FT cell extracts (293^HSV1-tk vs 293^wt). The format is biochemical. The conditions noted are these: 5 μM substrate, 2 μL cell extract; specificity HSV1-TK over m-TK. On the procedure: In a solid white 96-well plate, 5 μM substrate (dT, compounds 1, 2, or 3; N=4 for each substrate) and 20 μM ATP were dissolved in 48 μL of kinase reaction buffer (40 mM Tris; pH=7.5, 20 mM MgCl2, and 0.1 mg/mL BSA) followed by the addition of 2 μL of purified HSV1-TK to initiate the kinase reaction. Eight wells without substrate were included as the control reference. The plate was incubated at room temperature for 2 h, after which 50 μL of Kinase-Glo luciferase reagent (Kinase-Glo max luminescent kinase assay, Promega Inc.) was added. After […], the resulting luminescence values were recorded and used to quantify the residual ATP in the reaction. The relative phosphorylation (%) was then defined as the luminescence signal obtained after the enzymatic reaction (substrate+HSV1-TK+ATP) relative to the signal obtained from wells without substrate (HSV1-TK+ATP). For a phosphorylation assay performed on HEK-293FT lysates, 2 μL of cell extract (either ^293HSV1-tk or 293^wt cells) was used instead of purified HSV1-TK, and the assay was performed using 1 or 2 as the substrate according to the procedure described above.

Where [4] appears, read: at 5 ppm for 20 nM agent (so in the source).

“Also recorded” adds a separate entry of the source.

Regarding `CC1(C)CN([C@H]2C[C@H](O)[C@@H](CO)O2)C(=O)NC1=O` [Compound 2, 5-Methyl-5,6-dihydrothymidine], in the data set on 9L^HSV1-tk cells, the “intracellular concentration by 1H-NMR” value amounted to 0.37 mM. For the same molecule, in the data set on 293^HSV1-tk cells, the “toxic effect on 293^HSV1-tk cells” value was “did not show any toxic effect; also recorded: no toxic effect”. Besides, in data set [1] (setting [4]), the “MTRasym (8.5 Hz)” value amounted to 4%, the “MTRasym (170 Hz)” value came to 16% and the “MTRasym (213 Hz)” value is 21%. Further, the “MTRasym (128 Hz)” value in data set [1] (at 5 ppm for 20 mM agent) was determined as 10%. In addition, the “kex of the imino proton” value in data set [2] is on record as 1.7±0.3×10^3 s^−1. Also, the “kex, quantified exchange rates of imino and water protons” value in data set [2] (5 ppm for 1-3, 6 ppm for dT) is 1.7 ± 0.3 ×10^3 s^−1. For the same molecule, the “apoptosis (TUNEL staining)” value in data set [3] is given as “did not induce apoptosis; also recorded: do not induce apoptosis”. Further, the “increase in phosphorylation with respect to control extract (293^wt), factor relative to that of 1” value with HSV1-TK over m-TK was “about 10”.

Values taken from US20160082133A1, “CHEMICAL EXCHANGE SATURATION TRANSFER (CEST) BASED MRI USING REPORTER GENES AND SUBSTRATES AND METHODS THEREOF” (The Johns Hopkins University, priority 2013, published 2016).
